Laboratory results taken from patent US20050095299A1, “Controlled release analgesic suspensions” (priority 2003, published 2005).

Assay: Therapeutic duration of action of an immediate release dose (from dosing instructions in labeling)
Assay type: in vivo
Text: As used herein, “ATDAIRD” shall mean the average therapeutic duration of action of an effective immediate release dose” of a particular active ingredient. […] The therapeutic duration of action of a particular active ingredient can readily be determined from the dosing instructions in the labeling for immediate release products containing that particular active ingredient.

Row | Structure (SMILES) | ATDAIRD (average therapeutic duration of action of an effective immediate release dose)
1 | CC(C)Cc1ccc(C(C)C(=O)O)cc1 (stereo not drawn) [ibuprofen, 2-(4-isobutylphenyl)-propionic acid] | 5 h
2 | CC(C(=O)O)c1cccc(C(=O)c2ccccc2)c1 (stereo not drawn) [ketoprofen] | 5 h
3 | COc1ccc2cc([C@H](C)C(=O)O)ccc2c1 [naproxen] | 10 h
